Data as given in patent US9000022B2 (Exelixis Patent Company LLC, priority 2005, dated 2015).

tested on: LXRα and/or LXRβ; experiment: Co-transfection assay (LXRE luciferase reporter, CV-1 cells); format: cell-based, human; details: tested as described in Example 33; IC50 or EC50 for LXRα and/or LXRβ, isoform not specified; read-out: activity (IC50 or EC50 for LXR)
In short: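 CV-1 cells transiently co-transfected with full-length human LXRα or LXRβ plus RXRα, an LXRE×1-Tk-luciferase reporter and a β-galactosidase control. Compounds incubated 20 h at 37 °C (≤1% DMSO; screen at 10 μM final); luciferase read after lysis. EC50/IC50 from 8-point half-log curves (4 wells per point, ≥3 experiments); efficacy relative to a reference agonist high control and DMSO.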

Row | SMILES | IC50 or EC50 (potency, activation or inhibition) [nM]
1 | CC(C)(O)c1cn(-c2ccc(-c3cccc(S(C)(=O)=O)c3)cc2Cl)c(C(C)(C)c2cccc(Cl)c2Cl)n1 [Example 451, 2-(1-(3-chloro-3′-(methyl-sulfonyl)biphenyl-4-yl)-2-(2-(2,3-dichlorophenyl)propan-2-yl)-1H-imidazol-4-yl)propan-2-ol] | < 1000
2 | CC(C)(O)c1cn(-c2ccc(-c3cccc(S(C)(=O)=O)c3)cn2)c(-c2ccccc2C(F)(F)F)n1 [Example 420, 2-(1-{5-[3-(methyl-sulfonyl)phenyl]pyridin-2-yl}-2-[2-(trifluoromethyl)phenyl]-1H-imidazol-4-yl)propan-2-ol] | 1000 to 10000
3 | Cc1cc(-c2cccc(S(C)(=O)=O)c2)ccc1-n1cc(C(C)(C)O)nc1-c1ccc(C)n1C [Example 42, 2-(2-(1,5-dimethyl-1H-pyrrol-2-yl)-1-(3-methyl-3′-(methylsulfonyl)biphenyl-4-yl)-1H-imidazol-4-yl)propan-2-ol] | < 1000
4 | CCS(=O)(=O)c1cccc(-c2ccc(-n3cc(C(C)(C)O)nc3-c3c(Cl)cccc3Cl)c(F)c2)c1 [Example 116, 2-(2-(2,6-dichlorophenyl)-1-(3′-(ethylsulfonyl)-3-fluorobiphenyl-4-yl)-1H-imidazol-4-yl)propan-2-ol] | < 1000
5 | Cc1c(Cl)cccc1-c1nc(C(C)(C)O)cn1-c1ccc(-c2ccc(CO)c(S(C)(=O)=O)c2)cc1Cl [Example 160, 2-(2-(3-chloro-2-methylphenyl)-1-(3-chloro-4′-(hydroxymethyl)-3′-(methylsulfonyl)biphenyl-4-yl)-1H-imidazol-4-yl)propan-2-ol] | < 1000
6 | Cc1cc(-c2ccc(CO)c(S(C)(=O)=O)c2)ccc1-n1cc(C(C)(C)O)nc1-c1c(F)cccc1Cl [Example 172, 2-(2-(2-chloro-6-fluorophenyl)-1-(4′-(hydroxymethyl)-3-methyl-3′-(methylsulfonyl)biphenyl-4-yl)-1H-imidazol-4-yl)propan-2-ol] | < 1000
7 | CCS(=O)(=O)c1cccc(-c2ccc(-n3cc(C(C)(C)O)nc3-c3c(Cl)cccc3Cl)cc2)c1 [Example 91, 2-(2-(2,6-dichlorophenyl)-1-(3′-(ethylsulfonyl)biphenyl-4-yl)-1H-imidazol-4-yl)propan-2-ol] | 1000 to 10000
8 | CCS(=O)(=O)c1cccc(-c2ccc(-n3cc(C(C)(C)O)nc3-c3cccc4ccccc34)c(Cl)c2)c1 [Example 31, 2-(1-(3-chloro-3′-(ethyl-sulfonyl)biphenyl-4-yl)-2-(naphthalen-1-yl)-1H-imidazol-4-yl)propan-2-ol] | < 1000
9 | CCS(=O)(=O)c1cccc(-c2ccc(-n3cc(C(C)(C)O)nc3Cc3cccc(Cl)c3Cl)c(F)c2)c1 [Example 450, 2-(2-(2,3-dichlorobenzyl)-1-(3′-(ethylsulfonyl)-3-fluorobiphenyl-4-yl)-1H-imidazol-4-yl)propan-2-ol] | < 1000
10 | Cc1cc(-c2cccc(S(C)(=O)=O)c2)ccc1-c1nc(C(C)(C)O)cn1-c1ccccc1C(C)C [Example 61, 2-(1-(2-isopropylphenyl)-2-(3-methyl-3′-(methylsulfonyl)biphenyl-4-yl)-1H-imidazol-4-yl)propan-2-ol] | < 1000
11 | CC(=O)c1cn(-c2ccc(-c3cccc(S(C)(=O)=O)c3)cc2)c(-c2ccccc2C(F)(F)F)n1 [Example 411, 1-{1-[3′-(methylsulfonyl)biphenyl-4-yl]-2-[2-(trifluoromethyl)phenyl]-1H-imidazol-4-yl}ethanone] | < 1000
12 | CC(C)(CO)NC(=O)c1cn(-c2ccc(-c3cccc(C(C)(C)O)c3)cc2Cl)c(-c2c(Cl)cccc2Cl)n1 [Example 480, 1-(3-chloro-3′-(2-hydroxypropan-2-yl)biphenyl-4-yl)-2-(2,6-dichlorophenyl)-N-(1-hydroxy-2-methylpropan-2-yl)-1H-imidazole-4-carboxamide] | < 1000
13 | CCS(=O)(=O)c1cccc(-c2ccc(-n3cc(C(C)(C)O)nc3-c3ccccc3Cl)c(Cl)c2)c1 [Example 137, 2-(1-(3-chloro-3′-(ethyl-sulfonyl)biphenyl-4-yl)-2-(2-chlorophenyl)-1H-imidazol-4-yl)propan-2-ol] | < 1000
14 | Cc1cc(-c2ccc(CO)c(S(C)(=O)=O)c2)ccc1-n1cc(C(C)(C)O)nc1-c1c(Cl)cccc1Cl [Example 174, 2-(2-(2,6-dichlorophenyl)-1-(4′-(hydroxymethyl)-3-methyl-3′-(methylsulfonyl)biphenyl-4-yl)-1H-imidazol-4-yl)propan-2-ol] | < 1000
15 | CCS(=O)(=O)c1cccc(-c2ccc(-n3cc(C(C)(C)O)nc3-c3ccccc3C(C)C)cc2)c1 [Example 96, 2-(1-(3′-(ethylsulfonyl)biphenyl-4-yl)-2-(2-isopropylphenyl)-1H-imidazol-4-yl)propan-2-ol] | < 1000
16 | Cc1cc(-c2ccc(CO)c(S(C)(=O)=O)c2)ccc1-n1cc(C(C)(C)O)nc1-c1c(C)cccc1Cl [Example 177] | < 1000
17 | CC(C)(O)c1cn(-c2ccc(-c3cccc(S(C)(=O)=O)c3)cc2)c(-c2c(Cl)cccc2-c2cccc(S(C)(=O)=O)c2)n1 [Example 458, 2-(2-(3-chloro-3′-(methyl-sulfonyl)biphenyl-2-yl)-1-(3′-(methylsulfonyl)biphenyl-4-yl)-1H-imidazol-4-yl)propan-2-ol] | 1000 to 10000
18 | CCS(=O)(=O)c1cccc(-c2ccc(-n3cc(C(=O)NCC(F)(F)F)nc3-c3c(Cl)cccc3Cl)c(Cl)c2)c1 [Example 462, 1-(3-chloro-3′-(ethylsulfonyl)biphenyl-4-yl)-2-(2,6-dichlorophenyl)-N-(2,2,2-trifluoroethyl)-1H-imidazole-4-carboxamide] | < 1000
19 | CC(C)(O)c1cn(-c2ccc(-c3cccc(S(C)(=O)=O)c3)cc2Cl)c(-c2cccc3ccccc23)n1 [Example 30, 2-(1-(3-chloro-3′-(methyl-sulfonyl)biphenyl-4-yl)-2-(naphthalen-1-yl)-1H-imidazol-4-yl)propan-2-ol] | < 1000
20 | CC(C)(O)c1cn(-c2ccc(-c3cccc(S(C)(=O)=O)c3)cc2Cl)c(-c2cccc(Cl)c2Cl)n1 [Example 140, 2-(1-(3-chloro-3′-(methyl-sulfonyl)biphenyl-4-yl)-2-(2,3-dichlorophenyl)-1H-imidazol-4-yl)propan-2-ol] | < 1000
21 | CS(=O)(=O)c1cccc(-c2ccc(-c3[nH]c(C(F)(F)F)nc3-c3ccccc3Cl)s2)c1 [Example 357, 4-(2-chlorophenyl)-5-{5-[3-(methylsulfonyl)phenyl]-2-thienyl}-2-(trifluoromethyl)-1H-imidazole] | < 1000
22 | FC(F)(F)CNC(=S)c1cn(-c2ccc(Br)cc2)c(-c2ccccc2Cl)n1 [Example 396, 1-(4-bromophenyl)-2-(2-chlorophenyl)-N-(2,2,2-trifluoroethyl)-1H-imidazole-4-carbothioamide] | 1000 to 10000
23 | Cc1cccc(Cl)c1-c1nc(C(C)(C)O)cn1-c1ccc(-c2ccc(CO)c(S(C)(=O)=O)c2)cc1 [Example 102, 2-(2-(2-chloro-6-methylphenyl)-1-(4′-(hydroxymethyl)-3′-(methyl-sulfonyl)biphenyl-4-yl)-1H-imidazol-4-yl)propan-2-ol] | < 1000
